Assay results taken from PubChem BioAssay (NCI).
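Each compound was tested at five concentrations against cells in 96-well plates for 48 hours. GI50 = concentration required for 50% inhibition of growth. TGI denotes the concentration required for complete inhibition of growth.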

Columns and labels:
Assay in all cases: growth of human tumour cells (NCI), 48 h
NCI-H460 lung = test system: NCI-H460 lung
SN12C renal = test system: SN12C renal
OVCAR-8 ovarian = test system: OVCAR-8 ovarian
RXF 393 renal = test system: RXF 393 renal
SNB-19 CNS = test system: SNB-19 CNS
SK-MEL-5 melanoma = test system: SK-MEL-5 melanoma
786-0 renal = test system: 786-0 renal
MALME-3M melanoma = test system: MALME-3M melanoma
COLO 205 colon = test system: COLO 205 colon
NCI-H226 lung = test system: NCI-H226 lung
HCT-116 colon = test system: HCT-116 colon
HCC-2998 colon = test system: HCC-2998 colon
BT-549 breast = test system: BT-549 breast
MDA-MB-435 = test system: MDA-MB-435
MDA-MB-231 breast = test system: MDA-MB-231 breast
DU-145 prostate = test system: DU-145 prostate
MDA-N = test system: MDA-N

CC1OC(n2ccc3ccc([N+](=O)[O-])cc32)C(O)C(O)C1O (stereo not given)
TGI (NCI-H460 lung): > 100 µM
TGI (SN12C renal): > 100 µM
TGI (OVCAR-8 ovarian): > 100 µM
TGI (RXF 393 renal): > 100 µM
TGI (SNB-19 CNS): > 100 µM
TGI (SK-MEL-5 melanoma): > 100 µM
TGI (786-0 renal): > 100 µM
TGI (MALME-3M melanoma): > 100 µM
TGI (COLO 205 colon): > 100 µM
TGI (NCI-H226 lung): > 100 µM
TGI (HCT-116 colon): > 100 µM

COc1ccc(/C=C2\C(=O)Nc3ccccc32)cc1OC
TGI (NCI-H460 lung): > 100 µM
TGI (SN12C renal): > 100 µM
TGI (OVCAR-8 ovarian): > 100 µM
TGI (RXF 393 renal): > 100 µM
TGI (SNB-19 CNS): > 100 µM
TGI (SK-MEL-5 melanoma): > 100 µM
TGI (786-0 renal): > 100 µM
TGI (MALME-3M melanoma): > 100 µM
TGI (COLO 205 colon): > 100 µM
TGI (NCI-H226 lung): > 100 µM
TGI (HCT-116 colon): > 100 µM

O=C(CSc1nc(-c2ccccc2)c(-c2ccccc2)[nH]1)N/N=C/c1ccc([N+](=O)[O-])cc1
TGI (NCI-H460 lung): 43.2 µM
TGI (SN12C renal): 31.9 µM
TGI (OVCAR-8 ovarian): 25.4 µM
TGI (SK-MEL-5 melanoma): 31.1 µM
TGI (786-0 renal): 30.5 µM
TGI (MALME-3M melanoma): 33.3 µM
TGI (COLO 205 colon): 30.7 µM
TGI (NCI-H226 lung): 32.8 µM
TGI (HCT-116 colon): 32.7 µM

Nc1c2ccccc2nc2nccnc12
TGI (NCI-H460 lung): > 100 µM
TGI (SN12C renal): > 100 µM
TGI (OVCAR-8 ovarian): > 100 µM
TGI (RXF 393 renal): > 100 µM
TGI (SNB-19 CNS): > 100 µM
TGI (SK-MEL-5 melanoma): > 100 µM
TGI (HCC-2998 colon): > 100 µM
TGI (786-0 renal): > 100 µM
TGI (MALME-3M melanoma): > 100 µM
TGI (COLO 205 colon): > 100 µM
TGI (NCI-H226 lung): > 100 µM
TGI (HCT-116 colon): > 100 µM

Cc1c(/C=N/NC(=S)Nc2ccc([N+](=O)[O-])cc2)c(=O)n(-c2ccccc2)n1C
TGI (BT-549 breast): 36.5 µM
TGI (MDA-MB-435): > 100 µM
TGI (OVCAR-8 ovarian): 31.6 µM
TGI (RXF 393 renal): 24.8 µM
TGI (SNB-19 CNS): 31.8 µM
TGI (SK-MEL-5 melanoma): > 100 µM
TGI (HCC-2998 colon): > 100 µM
TGI (MDA-MB-231 breast): 49.2 µM
TGI (786-0 renal): 27.3 µM
TGI (COLO 205 colon): > 100 µM
TGI (NCI-H226 lung): 29.7 µM
TGI (HCT-116 colon): 52.3 µM

N#CC(NNC(=O)Cc1ccccc1)c1ccc(O)cc1 (stereo not given)
TGI (NCI-H460 lung): > 100 µM
TGI (SN12C renal): > 100 µM
TGI (OVCAR-8 ovarian): > 100 µM
TGI (RXF 393 renal): > 100 µM
TGI (SK-MEL-5 melanoma): > 100 µM
TGI (786-0 renal): > 100 µM
TGI (MALME-3M melanoma): > 100 µM
TGI (COLO 205 colon): > 100 µM
TGI (NCI-H226 lung): > 100 µM
TGI (HCT-116 colon): > 100 µM

COc1cc2c(OC)c3cc(C)oc(=O)c3c(O)c2c(O)c1-c1c(OC)cc2c(OC)c3cc(C)oc(=O)c3c(O)c2c1O
TGI (BT-549 breast): 68.5 µM
TGI (NCI-H460 lung): 42.5 µM
TGI (MDA-MB-435): 33.9 µM
TGI (SN12C renal): 45.2 µM
TGI (OVCAR-8 ovarian): 30 µM
TGI (RXF 393 renal): 35.9 µM
TGI (SNB-19 CNS): 65.1 µM
TGI (SK-MEL-5 melanoma): 35.8 µM
TGI (HCC-2998 colon): 33.5 µM
TGI (MDA-MB-231 breast): 36.6 µM
TGI (786-0 renal): 60.8 µM
TGI (MALME-3M melanoma): 37.2 µM
TGI (NCI-H226 lung): 38.2 µM
TGI (DU-145 prostate): > 100 µM
TGI (HCT-116 colon): 28 µM

CC1=N/C(=C\c2ccc(N)cc2)C(=O)N1Nc1nnc(NN2C(=O)/C(=C/c3ccc(N)cc3)N=C2C)c2ccccc12
TGI (NCI-H460 lung): > 100 µM
TGI (SN12C renal): > 100 µM
TGI (OVCAR-8 ovarian): > 100 µM
TGI (RXF 393 renal): > 100 µM
TGI (SNB-19 CNS): > 100 µM
TGI (SK-MEL-5 melanoma): > 100 µM
TGI (786-0 renal): > 100 µM
TGI (COLO 205 colon): > 100 µM
TGI (NCI-H226 lung): 56.5 µM
TGI (HCT-116 colon): > 100 µM

Cn1c(=O)oc2cc(C(=O)CN3CCN(Cc4ccc5c(c4)OCO5)CC3)c(Cl)cc21
TGI (NCI-H460 lung): > 100 µM
TGI (SN12C renal): > 100 µM
TGI (RXF 393 renal): > 100 µM
TGI (SNB-19 CNS): > 100 µM
TGI (SK-MEL-5 melanoma): > 100 µM
TGI (HCC-2998 colon): > 100 µM
TGI (MDA-MB-231 breast): > 100 µM
TGI (786-0 renal): > 100 µM
TGI (MALME-3M melanoma): > 100 µM
TGI (MDA-N): > 100 µM
TGI (COLO 205 colon): > 100 µM
TGI (DU-145 prostate): > 100 µM
TGI (HCT-116 colon): > 100 µM

O=C1CCN(CCC(F)(F)C(F)(F)C(F)(F)C(F)(F)F)C(=S)N1
TGI (NCI-H460 lung): > 100 µM
TGI (SN12C renal): > 100 µM
TGI (OVCAR-8 ovarian): > 100 µM
TGI (RXF 393 renal): > 100 µM
TGI (SNB-19 CNS): > 100 µM
TGI (SK-MEL-5 melanoma): > 100 µM
TGI (786-0 renal): > 100 µM
TGI (MALME-3M melanoma): > 100 µM
TGI (COLO 205 colon): > 100 µM
TGI (NCI-H226 lung): > 100 µM
TGI (HCT-116 colon): > 100 µM

Cc1ccc(OC2CC(n3cnc4c(=O)[nH]c(Br)nc43)OC2Oc2ccc(C)cc2)cc1 (stereo not given)
TGI (BT-549 breast): 67.5 µM
TGI (NCI-H460 lung): 43.2 µM
TGI (MDA-MB-435): 57.1 µM
TGI (SN12C renal): 56.5 µM
TGI (OVCAR-8 ovarian): 66.5 µM
TGI (RXF 393 renal): 60.5 µM
TGI (SNB-19 CNS): 49 µM
TGI (SK-MEL-5 melanoma): 58.7 µM
TGI (HCC-2998 colon): 47.3 µM
TGI (MDA-MB-231 breast): 46.9 µM
TGI (786-0 renal): 74.9 µM
TGI (MALME-3M melanoma): 61.5 µM
TGI (COLO 205 colon): 82.8 µM
TGI (NCI-H226 lung): > 100 µM
TGI (DU-145 prostate): 53.9 µM
TGI (HCT-116 colon): > 100 µM

CNc1cccc(-c2cc(=O)c3cc4c(cc3[nH]2)OCO4)c1
TGI (BT-549 breast): > 100 µM
TGI (NCI-H460 lung): > 100 µM
TGI (SN12C renal): > 42.8 µM
TGI (RXF 393 renal): > 100 µM
TGI (SNB-19 CNS): > 100 µM
TGI (SK-MEL-5 melanoma): 6.92 µM
TGI (HCC-2998 colon): 1.38 µM
TGI (MDA-MB-231 breast): 4.52 µM
TGI (786-0 renal): > 100 µM
TGI (MALME-3M melanoma): > 100 µM
TGI (COLO 205 colon): 0.63 µM
TGI (NCI-H226 lung): 8.71 µM
TGI (DU-145 prostate): 8.87 µM
TGI (HCT-116 colon): > 100 µM

COc1ccc(-c2cc(=O)c3cc4c(cc3[nH]2)OCO4)c(OC)c1
TGI (NCI-H460 lung): > 100 µM
TGI (SN12C renal): > 100 µM
TGI (OVCAR-8 ovarian): > 100 µM
GI50 (RXF 393 renal): 45.4 µM
TGI (RXF 393 renal): > 100 µM
TGI (SNB-19 CNS): > 100 µM
TGI (SK-MEL-5 melanoma): 80.1 µM
TGI (HCC-2998 colon): > 100 µM
TGI (786-0 renal): > 100 µM
TGI (MALME-3M melanoma): 77.2 µM
TGI (COLO 205 colon): > 100 µM
GI50 (NCI-H226 lung): 93.5 µM
TGI (NCI-H226 lung): > 100 µM
GI50 (HCT-116 colon): 40.7 µM
TGI (HCT-116 colon): > 100 µM

N[C@@H]1c2c(Br)sc(Br)c2C(=O)[C@H]1Br
TGI (BT-549 breast): 43.1 µM
TGI (NCI-H460 lung): > 100 µM
TGI (MDA-MB-435): > 61 µM
TGI (SN12C renal): 58.9 µM
TGI (OVCAR-8 ovarian): 48.4 µM
TGI (RXF 393 renal): 53.6 µM
TGI (SNB-19 CNS): > 74.6 µM
TGI (SK-MEL-5 melanoma): > 100 µM
TGI (HCC-2998 colon): > 76.1 µM
TGI (MDA-MB-231 breast): 48.5 µM
TGI (786-0 renal): 63.5 µM
TGI (MALME-3M melanoma): 57.4 µM
TGI (COLO 205 colon): > 68 µM
TGI (NCI-H226 lung): > 58.4 µM
TGI (DU-145 prostate): > 100 µM
TGI (HCT-116 colon): 39.9 µM
